Tests used:
[1] = tested on: choriocapillaris; experiment: Normal choriocapillaris rabbit model: PDT vessel closure out to 28 days, fluorescein angiography; assay type: in vivo; conditions: pigmented rabbit, intravenous, light dose 20 J/cm^2, optimal drug dose and time interval per compound, grade by fluorescein angiography
Procedure: The chlorin e6molecules were evaluated in a series of preclinical ocular neovessel models, corneal neovascularization, normal choriocapillaris vessels, and choroidal neovascularization.
Selected chlorin e6 molecules were also evaluated in a normal choriocapillaris model in the pigmented rabbit. […] The selected photosensitizers were administered intravenously at varying drug doses, the light dose was set constant at 20 J/cm^2, and the time interval was varied from 5-30 minutes between drug and light administration. Two PDT treatment areas were placed on the fundus of each eye in each rabbit. Fluorescein angiography was used to evaluate vessel closure following PDT out to 28 days.

[2] = tested on: corneal neovessels; experiment: Experimentally induced corneal neovascularization (N-heptanol scrub): PDT closure of corneal neovessels, fluorescein angiography out to 28 days; assay type: in vivo, Sprague Dawley rats; conditions: corneal neovessels induced by n-heptanol scrub, rats; light dose 20 J/cm^2 at optimal excitation wavelength; optimal drug dose and time interval per compound; grade by corneal fluorescein angiography (neovessel-free area)
Procedure: The chlorin e6molecules were evaluated in a series of preclinical ocular neovessel models, corneal neovascularization, normal choriocapillaris vessels, and choroidal neovascularization. […] The chemical scrub was used to remove the corneal epithelium and stem cells, allowing the neovessels to grow across the entire cornea. PDT was performed at approximately 3 weeks after the chemical scrub when the neovessels formed a uniform network across the cornea. The PDT treatment was applied to the corneal surface with a laser wavelength that was optimized for the given absorption spectrum. The laser energy was coupled through a slit lamp biomicroscope with a slit lamp adapter. A 3.0 mm spot size was used (Area=7.07 mm^2). The light dose delivered was varied from 5-25 J/cm^2. The efficacy of neovessel closure was evaluated by measuring the area of treated cornea that remained neovessel-free out to 28 days following PDT. Accurate area measurements were taken using fluorescein angiography and measuring the area of neovessel-free cornea.

[3] = tested on: choroidal neovascularization lesions; experiment: Laser-induced choroidal neovascularization (CNV) model: PDT closure of CNV lesions, fluorescein angiography and histopathology; assay type: in vivo, rats
Procedure: Two of the chlorin e6molecules, (39) and (106), were evaluated in a laser-induced choroidal neovascularization (CNV) model in rats. Laser photocoagulation was used to stimulate choroidal neovessel growth on the fundus of the rat (E. T. Dobi, C. Puliafito, M. A. Destro, “A new model of experimental choroidal neovascularization in the rat”, Arch. Ophthalmol. 1989; 107: 264-269). The PDT treatments were performed approximately 4 weeks after the laser photocoagulation, which was when the choroidal neovascularization lesions were fully developed. The lesions were PDT treated using a 1.2 mm spot which covered the entire CNV lesion. Fluorescein angiography and histopathology were used to evaluate the CNV closure.

Structure (SMILES): C=Cc1c(C)c2cc3nc(c(CC(=O)OC)c4[nH]c(cc5nc(cc1[nH]2)C(C)=C5CC)c(C)c4C(=O)NCCCO)C(CCC(=O)OC)C3C (centres unmarked) [Compound 30, 3-[[(3-hydroxypropyl)amino]carbonyl]-13-ethenyl-18-ethyl-7,8-dihydro-5-(2-methoxy-2-oxoethyl)-2,8,12,17-tetramethyl-21H, 23H-Porphine-7-propionic acid, methyl ester]
- Closure at 28 Days [1]: 3 (3 = 51-75%)
- Extent of neovessel closure at 28 days after treatment [2]: 2 (2 = 1.1-2.0 mm^2)

Structure (SMILES): C=Cc1c(C)c2cc3nc(c(CC(=O)OC)c4[nH]c(cc5nc(cc1[nH]2)C(C)=C5CC)c(C)c4C(=O)NCCCOC(C)=O)C(CCC(=O)OC)C3C (centres unmarked) [Compound 34, 3-[[(3-acetoxypropyl)amino]carbonyl]-13-ethenyl-18-ethyl-7,8-dihydro-5-(2-methoxy-2-oxoethyl)-2,8,12,17-tetramethyl-21H, 23H-Porphine-7-propionic acid, methyl ester]
- Closure at 28 Days [1]: 3 (3 = 51-75%)
- Extent of neovessel closure at 28 days after treatment [2]: 1 (1 = 0.21-1.0 mm^2)

Structure (SMILES): C=Cc1c(C)c2cc3nc(c(CC(=O)OC)c4[nH]c(cc5nc(cc1[nH]2)C(C)=C5CC)c(C)c4C(=O)NCCOCCO)C(CCC(=O)OC)C3C (centres unmarked) [Compound 39, 3-[[(5-hydroxy-3-oxa-pentyl)amino]carbonyl]-13-ethenyl-18-ethyl-7,8-dihydro-5-(2-methoxy-2-oxoethyl)-2,8,12,17-tetramethyl-21H, 23H-Porphine-7-propionic acid, methyl ester]
- Closure at 28 Days [1]: 4 (4 > 75%)
- Extent of neovessel closure at 28 days after treatment [2]: 1 (1 = 0.21-1.0 mm^2)
- CNV closure (fluorescein angiography) ([3]; 0.8 & 1.6 μmoles/kg, 10-20 minutes time interval post injection, 7 days after PDT): closed the CNV lesion

Structure (SMILES): C=Cc1c(C)c2cc3nc(c(CCO)c4[nH]c(cc5nc(cc1[nH]2)C(C)=C5CC)c(C)c4C(=O)NCCOCCO)C(CCCO)C3C (centres unmarked) [Compound 43, 7-(3-hydroxypropyl)-3-[[(5-hydroxy-3-oxa-pentyl)amino]carbonyl]-13-ethenyl-18-ethyl-7,8-dihydro-5-(2-hydroxyethyl)-2,8,12,17-tetramethyl-21H, 23H-Porphine]
- Extent of neovessel closure at 28 days after treatment [2]: 1 (1 = 0.21-1.0 mm^2)

Structure (SMILES): C=Cc1c(C)c2cc3nc(c(CC(=O)OC)c4[nH]c(cc5nc(cc1[nH]2)C(C)=C5CC)c(C)c4C(=O)NCCOCCOC(C)=O)C(CCC(=O)OC)C3C (centres unmarked) [Compound 45, 3-[[(5-acetoxy-3-oxa-pentyl)amino]carbonyl]-13-ethenyl-18-ethyl-7,8-dihydro-5-(2-methoxy-2-oxoethyl)-2,8,12,17-tetramethyl-21H, 23H-Porphine-7-propionic acid, methyl ester]
- Closure at 28 Days [1]: 3 (3 = 51-75%)
- Extent of neovessel closure at 28 days after treatment [2]: 1 (1 = 0.21-1.0 mm^2)

Structure (SMILES): CCC1=C(C)c2cc3[nH]c(cc4nc(c(CC(=O)OC)c5[nH]c(cc1n2)c(C)c5C(=O)NCCCO)C(CCC(=O)OC)C4C)c(C)c3C(C)=O (centres unmarked) [Compound 101, 3-[[(3-hydroxypropyl]amino]carbonyl]-13-acetyl-18-ethyl-7,8-dihydro-5-(2-methoxy-2-oxoethyl)-2,8,12,17-tetramethyl-21H, 23H-Porphine-7-propionic acid, methyl ester]
- Extent of neovessel closure at 28 days after treatment [2]: 0 (0 = 0-0.2 mm^2)

Structure (SMILES): CCC1=C(C)c2cc3[nH]c(cc4nc(c(CC(=O)OC)c5[nH]c(cc1n2)c(C)c5C(=O)NCCOCCO)C(CCC(=O)OC)C4C)c(C)c3C(C)=O (centres unmarked) [Compound 106, 3-[[(5-hydroxy-3-oxa-pentyl)amino]carbonyl]-13-acetyl-18-ethyl-7,8-dihydro-5-(2-methoxy-2-oxoethyl)-2,8,12,17-tetramethyl-21H, 23H-Porphine-7-propionic acid, methyl ester]
- Closure at 28 Days [1]: 4 (4 > 75%)
- Extent of neovessel closure at 28 days after treatment [2]: 1 (1 = 0.21-1.0 mm^2)
- CNV closure (fluorescein angiography) ([3]; 0.75 μmoles/kg, 20 minutes time interval post injection, 7 days post PDT): demonstrated CNV closure
